Data taken from patent US20250084095A1, “Aminopyrimidine Derivatives as Cyclin-Dependent Kinase Inhibitors” (Accutar Biotechnology Inc., priority 2023, published 2025).

Experiments:
22RV1 cells = test: Cell growth inhibition of 22RV1 cells (CellTiter-Glo); type: cell-based; details: Homo sapiens, 22Rv1, 120 h, 5 days, CellTiter-Glo, read-out: 22RV1 Cell Growh GI50
Method: For cell growth assay, 22RV1 (ATCC, CRL-2505) cells were seeded in 96-well plates at 1000 cells/well in 90 μl of RPMI1640 growth medium containing 20% FBS and 1% Penicillin Streptomycin, and then incubated at 37° C. overnight. The following day, the test compound was administered to the cells by using 1000× compound stock solution prepared in DMSO at various concentrations. 1000× compound stock solution was first diluted in culturing medium to 10×, then 10 uL compound medium was added to each well in the cell plates. After administration of the compound, the cells were then incubated at 37° C. for 5 days. Upon completion, the plates were equilibrated at room temperature for approximately 10 min. 100 μl of CellTiter-Glo® Reagent (Promega) was added to each well. The plates were then incubated at room temperature for 10 min and luminescence was recorded by EnSpire plate reader (PerkinElmer).
22RV1 cells were obtained from American Type Culture Collection (ATCC, CRL-2505). 22RV1 cells were seeded in 96-well plates at 1000 cells/well in 90 μL of RPMI1640 growth medium containing 10% FBS and 1% Penicillin Streptomycin, and then incubated at 37° C. overnight. The following day, the test compound was administered to the cells by using 1000× compound stock solution prepared in DMSO at various concentrations. […], then 10 uL compound medium was added to each well in the cell plates. After administration of the compound, the cells were then incubated at […] for 5 days. Upon completion, the plates were equilibrated at room temperature for approximately 10 minutes. 100 μL of CellTiter-Glo® Reagent (Promega) was added to each well. The plates were then incubated at room temperature for 10 minutes and luminescence was recorded by EnSpire plate reader (PerkinElmer).

[1] = tested on: Phospho-Rb (Ser807/811) in MCF7 cells; test: Phospho-Rb expression inhibition in MCF7 cells quantified by in cell Western; type: cell-based, human; details: Homo sapiens, MCF7, 24 h, 24 hours, in cell Western, read-out: MCF7 pRb IC50
Method: MCF7 cells were obtained from American Type Culture Collection (ATCC, HTB-22). MCF7 cells were plated in 96-well plates (VWR #10062-900, or Coming #3904) in 90 μL culture medium at a density of 20,000 cells/well in the DMEM growth medium containing 10%/FBS and 1% Penicillin Streptomycin, and then incubated at 37° C. overnight. The following day, the test compound was administered to the cells by using 1000× compound stock solution prepared in DMSO at various concentrations. 1000× compound stock solution was first diluted in culturing medium to 10×, then 10 μL compound medium was added to each well in the cell plates. After administration of the compound, the cells were then incubated at 37° C. for 24 h. Upon completion, the cells were washed with PBS briefly. 150 μL/well of 4% formaldehyde was added and the plates were incubated at room temperature for 20 min. The cells were washed with PBS briefly, and permeabilized with 150 µL/well of ice cold 100% methanol for 10 min. The cells were washed with PBS briefly and blocked with 100 µL/well LI-COR blocking buffer for 1 h at room temperature with gentle shaking. The cells were incubated overnight at 4° C. with 50 μL primary antibody rabbit anti-Phospho-Rb (Ser807/811) (1: 500, Cell Signaling, #8516) and anti-Rb (1:200, Santa Cruz, sc-73598) diluted in Intercept Blocking Buffer (LI-COR, #927-60001) containing 0.1% Tween 20. The next day, the cells were washed with 200 μL PBS containing 0.1% Tween 20, 5×5 mins at room temperature with gentle shaking, and incubated with 50 μL secondary antibody, IRDye® 800CW Goat anti-Rabbit IgG (1:1000, LI-COR, #926-32211) and FRDye® 680RD Goat anti-Mouse IgG (1:1000, LI-COR, #926-68070), in LI-COR […] blocking buffer with 0.2% Tween 20 for 1 h at room temperature with gentle shaking. The cells were washed with 200 μL PBS containing 0.1% Tween 20, 5×5 min at room temperature with gentle shaking. The cells were washed with PBS for 5 mins. 100 μL fresh PBS was added to each well and the plates were imaged on a LI-COR Odyssey CLX plate reader.
MCF7 cells were obtained from American Type Culture Collection (ATCC, HTB-22). SW1573-CDK6 KO and SW1573-CDK4 KO cells were generated by the CRISPR-Cas9 technology. All cells were plated in 96-well plates (VWR #10062-900, or Corning #3904) in 90 uL culture medium at a density of 20,000 cells/well in the respective growth medium containing 10% FBS and 1% Penicillin Streptomycin, and then incubated at 37° C. overnight. The following day, the test compound was administered to the cells by using 1000× compound stock solution prepared in DMSO at various concentrations. 1000× compound stock solution was first diluted in culturing medium to 10×, then 10 uL compound medium was added to each well in the cell plates. After administration of the compound, the cells were then incubated at 37° C. for 24 hours. Upon completion, the cells were washed with PBS briefly. 150 uL/well of 4% formaldehyde was added and the plates were incubated at room temperature for 20 mins. The cells were washed with PBS briefly, and permeabilized with 150 uL/well of ice cold 100% methanol for 10 mins. The cells were washed with PBS briefly and blocked with 100 uL/well LI-COR blocking buffer for 1 hr at room temperature with gentle shaking. The cells were incubated overnight at 4° C. with 50 uL primary antibody rabbit anti-Phospho-Rb (Ser807/811) (1: 500, Cell Signaling, #8516) and anti-Rb (1:200, Santa Cruz, sc-73598) diluted in Intercept Blocking Buffer (LI-COR, #927-60001) containing 0.1% Tween 20. The next day, the cells were washed with 200 uL PBS containing 0.1% Tween 20, 5×5 mins at room temperature with gentle shaking, and incubated with 50 uL secondary antibody, IRDye® 800CW Goat anti-Rabbit IgG (1:1000, LI-COR, #926-32211) and IRDye®680RD Goat anti-Mouse IgG (1:1000, LI-COR, #926-68070), in LI-COR blocking buffer with 0.2% Tween 20 for 1 hr at room temperature with gentle shaking. […]

| SMILES | GI50 (22RV1 cells) | IC50 [1] |
| --- | --- | --- |
| CC(C)(O)c1cnc2cc(-c3nc(N[C@@H]4C[C@H]5CO[C@H](O5)[C@H]4O)ncc3Cl)cc(F)c2n1 [Compound 295, (1S,3R,4S,5R)-3-((5-chloro-4-(8-fluoro-2-(2-hydroxypropan-2-yl)quinoxalin-6-yl)pyrimidin-2-yl)amino)-6,8-dioxabicyclo[3.2.1]octan-4-ol] | > 3000 nM | 150 to 1000 nM |
| CC(C)n1c(C(C)(C)O)nc2c(F)cc(-c3nc(N[C@@H]4C[C@@H]5CO[C@@H](O5)[C@H]4O)ncc3Cl)cc21 [Compound 137, (1R,3R,4S,5S)-3-((5-chloro-4-(4-fluoro-2-(2-hydroxypropan-2-yl)-1-isopropyl-1H-benzo[d]imidazol-6-yl)pyrimidin-2-yl)amino)-6,8-dioxabicyclo[3.2.1]octan-4-ol] | > 3000 nM | 150 to 1000 nM |
| CC(C)n1c(CN2CC[C@@H](F)C2)cc(=O)c2ccc(-c3nc(N[C@@H]4C[C@H]5CO[C@H](O5)[C@H]4O)ncc3F)cc21 [Compound 210, 7-(5-fluoro-2-(((1S,3R,4S,5R)-4-hydroxy-6,8-dioxabicyclo[3.2.1]octan-3-yl)amino)pyrimidin-4-yl)-2-(((R)-3-fluoropyrrolidin-1-yl)methyl)-1-isopropylquinolin-4(1H)-one] | 450 to 3000 nM | 150 to 1000 nM |
| CC1OCC(C)n2c1nc1c(F)cc(-c3nc(N[C@@H]4C[C@H]5CO[C@H](O5)[C@H]4O)ncc3Cl)cc12 (stereo partly drawn) [Compound 49, (1S,3R,4S,5R)-3-((5-chloro-4-(9-fluoro-1,4-dimethyl-3,4-dihydro-1H-benzo[4,5]imidazo[2,1-c][1,4]oxazin-7-yl)pyrimidin-2-yl)amino)-6,8-dioxabicyclo[3.2.1]octan-4-ol] | 120 to 450 nM | 40 to 150 nM |

More lines, now with the values ahead:

| GI50 (22RV1 cells) | IC50 [1] | SMILES |
| --- | --- | --- |
| 120 to 450 nM | 150 to 1000 nM | Cc1c(C(F)F)c(=O)c2ccc(-c3nc(N[C@@H]4C[C@H]5CO[C@H](O5)[C@H]4O)ncc3F)cc2n1C(C)C [Compound 192, 3-(difluoromethyl)-7-(5-fluoro-2-(((1S,3R,4S,5R)-4-hydroxy-6,8-dioxabicyclo[3.2.1]octan-3-yl)amino)pyrimidin-4-yl)-1-isopropyl-2-methylquinolin-4(1H)-one] |
| 120 to 450 nM | 40 to 150 nM | CC(C)n1c(C(C)(C)O)nc2c(F)cc(-c3nc(N[C@@H]4C[C@H]5CO[C@H](O5)[C@H]4O)ncc3F)cc21 [Compound 27, (1S,3R,4S,5R)-3-((5-fluoro-4-(4-fluoro-2-(2-hydroxypropan-2-yl)-1-isopropyl-1H-benzo[d]imidazol-6-yl)pyrimidin-2-yl)amino)-6,8-dioxabicyclo[3.2.1]octan-4-ol] |
| 120 to 450 nM | 150 to 1000 nM | CC(C)(O)c1nc2c(F)cc(-c3nc(N[C@@H]4C[C@H]5CO[C@H](O5)[C@H]4O)ncc3Cl)cc2n1C12CC(C1)C2 [Compound 181, (1S,3R,4S,5R)-3-((4-(1-(bicyclo[1.1.1]pentan-1-yl)-4-fluoro-2-(2-hydroxypropan-2-yl)-1H-benzo[d]imidazol-6-yl)-5-chloropyrimidin-2-yl)amino)-6,8-dioxabicyclo[3.2.1]octan-4-ol] |
| 120 to 450 nM | 40 to 150 nM | CC(C)N1CCOc2c(F)cc(-c3nc(N[C@@H]4C[C@H]5CO[C@H](O5)[C@H]4O)ncc3Cl)cc21 [Compound 173, (1S,3R,4S,5R)-3-((5-chloro-4-(8-fluoro-4-isopropyl-3,4-dihydro-2H-benzo[b][1,4]oxazin-6-yl)pyrimidin-2-yl)amino)-6,8-dioxabicyclo[3.2.1]octan-4-ol] |
| 120 to 450 nM | 40 to 150 nM | CC(C)n1c(C(C)(C)O)nc2c(F)cc(-c3nc(N[C@@H]4C[C@H]5OC[C@H](O5)[C@H]4O)ncc3Cl)cc21 [Compound 72, (1S,2S,3R,5S)-3-((5-chloro-4-(4-fluoro-2-(2-hydroxypropan-2-yl)-1-isopropyl-1H-benzo[d]imidazol-6-yl)pyrimidin-2-yl)amino)-6,8-dioxabicyclo[3.2.1]octan-2-ol] |
